Patent US20160186209A1, “RECOMBINANT CELLS AND METHODS OF USING SUCH CELLS TO IDENTIFY CIRCADIAN RHYTHM MODULATORS” (University of Memphis Research Foundation, priority 2012, published 2016)

Experiments:
[1] = system: Differentiated 3T3-L1 cells (ERK phosphorylation); test: Insulin-induced ERK phosphorylation (Western blot), differentiated 3T3-L1 cells; type: cell-based, mouse; details: 0.1 nM insulin for 5 minutes
Protocol: (§1) FIGS. 1A-1C are graphs showing that fibroblasts, adipocytes, and hepatocytes display bioluminescence rhythms. […] Reporter cells were generated via lentiviral infection of either Per2-dLuc or Bmal1-dLuc luciferase reporter, and infected cell populations were recorded in a LumiCycle. Baseline-subtracted bioluminescence data of both reporter lines are plotted together to show the expected, approximately anti-phasic reporter expression for each cell type. […] Baseline-subtracted bioluminescence data of selected clonal lines representing both reporter types are plotted together to show anti-phasic reporter expression for each cell type. High reproducibility is illustrated by showing data from 24 of the 96 wells for each reporter. […] Differentiated 3T3-L1 and MMH-D3 cells were treated with 0.1, 1, or 10 nM insulin for 5, 15, or 30 minutes, followed by cell lysis and Western blot analysis with ERK and pERK antibodies. […] Data are representative of two independent experiments.
(§2) To develop new models, a battery of luciferase-based reporters that can be introduced into cells via transient transfection or lentiviral transduction was engineered. To explore cell type specificity of clock gene function, new reporter cell lines comprising lentiviral luciferase reporter driven either by the Per2 or Bmal1 promoters were developed. […]

[2] = system: Differentiated MMH-D3 cells (ERK phosphorylation); test: Insulin-induced ERK phosphorylation (Western blot), differentiated MMH-D3 cells; type: cell-based; details: 0.1 nM insulin for 5 minutes
Protocol: as §1, §2

insulin
ERK activation as reflected by its phosphorylation [1]: sufficient to activate ERK
ERK activation as reflected by its phosphorylation [2]: sufficient to activate ERK
